Experimental data taken from article PMC10666288, “Unveiling the Catalytic Mechanism of a Processive Metalloaminopeptidase” (Biochemistry, 2023).
Values joined by “and” are separate entries in the source; they are usually repeats but may differ in a detail not shown here. Equal values may be shown once.

Columns and labels:
Set-up in all cases: GG stays after cleavage) (N); made in house; host or cells: E. coli BL21(DE3)
[1] = biological target: T1, PaPepA (Pseudomonas aeruginosa, UniProt Q02RY8); experiment: Solvent kinetic isotope effects; format: biochemical; settings: H2O vs 80% D2O, metal varied, Leu-pNA fixed, pH 8.0
T1 sequence (Q02RY8 whole entry): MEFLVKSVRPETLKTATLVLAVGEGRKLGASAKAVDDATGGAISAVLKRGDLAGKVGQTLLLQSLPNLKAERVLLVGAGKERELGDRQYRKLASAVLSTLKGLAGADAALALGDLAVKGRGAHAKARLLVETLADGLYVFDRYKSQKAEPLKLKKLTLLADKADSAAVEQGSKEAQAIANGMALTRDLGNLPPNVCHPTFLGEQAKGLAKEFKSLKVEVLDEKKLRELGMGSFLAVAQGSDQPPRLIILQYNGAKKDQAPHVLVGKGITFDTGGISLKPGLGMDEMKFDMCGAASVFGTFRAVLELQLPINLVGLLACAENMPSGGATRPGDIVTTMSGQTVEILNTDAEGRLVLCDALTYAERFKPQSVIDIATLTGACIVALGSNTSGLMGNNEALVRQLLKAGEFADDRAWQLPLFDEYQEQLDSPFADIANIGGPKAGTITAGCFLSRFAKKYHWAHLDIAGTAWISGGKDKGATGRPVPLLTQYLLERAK
Method: SKIEs were determined by plotting saturation curves in H2O or 80% D2O. […] Differences between reaction rates under initial velocity conditions were measured varying the concentration of either Leu-pNA or Mn^2+, while keeping the other component constant and in excess (at least 5× the value of KM or KACT, Scheme 2). Experiments were performed at pH 8.0 (100 mM HEPES, with 50 mM KCl). For proton inventory studies, D2O was varied from 0 to 80% in 10% increments. All proton inventory studies were carried out on the same day by using the same enzyme stock.
When calculating SKIEs, kcat and KM were obtained from the Michaelis–Menten curves in H2O. The 80% D2O Michaelis–Menten curve was fit to the following equation: [drawing 2] 2 where Fi is the fraction D2O, and EV/K and EV are the isotope effects −1 on kcat/KM and kcat, respectively.

[2] = biological target: T1, PaPepA; experiment: Metal activation of Leu-pNA cleavage (metal varied, Leu-pNA fixed); format: biochemical; settings: with 2 mM Leu-pNA
Method: A BMG Labtech POLARstar Omega plate reader was used for activity assays and kinetic studies involving amino acids conjugated to para-nitroaniline (pNA) (Sigma) or peptides as substrates. Assays were carried out at 25 °C in clear half-area 96-well plates (Greiner Bio-One). […] For kinetic assays investigating Leu-AMC as a substrate, a SpectraMax M2E was used. Reactions were carried out using black half-area 96-well plates with clear bottoms (Greiner Bio-One). Product formation was assessed by monitoring changes in fluorescence, with the excitation wavelength set at 341 nm and emission at 441 nm. The cutoff was 420 nm. PMT gain was set to medium, with six flashes per read. […] Calibration curves of pNA concentration vs absorbance and AMC vs fluorescence were constructed, and initial rate values were divided by the slope of these calibration curves to reveal the rate of product formation over time (Table S2).
For all assays excluding pH dependence curves, buffer conditions were as follows: 100 mM HEPES, 50 mM KCl, and pH 8.0. For assays carried out under pseudo-first-order conditions, one reaction component was fixed and in excess, while the other was varied. […] For assays involving variation of aa-pNA or aa-AMC, MnCl2 was added to a final concentration of 3 mM.

[3] = biological target: T1, PaPepA; experiment: Isothermal titration calorimetry of metal binding
Method: Purified PaPepA (100 μM) was buffer exchanged into ITC buffer (50 mM Tris, 140 mM NaCl, pH 7.4) using a Millipore Amicon Ultra-4 centrifugal unit (10 kDa MWCO). The protein was syringe-filtered through a […] and diluted to 50 μM. 3 mL solutions of filtered metal were also prepared. A 400 μM solution of MnCl2 and a 1 mM solution of MgCl2 were prepared by dilution of 1 M metal chloride stocks (Sigma) into ITC buffer.
Buffer, protein, and metal solutions were degassed. Following extensive washes with ITC buffer, the protein was loaded into the cell (volume 1.43 mL) of a VP-ITC (MicroCal) and MnCl2 or MgCl2 solution was loaded into the syringe (total volume 300 μL). Experiments were carried out using the following settings: temperature = 25 °C, duration = 4 s, spacing = 210 s, filter period = 2 s, for 35 injections (one injection of 2 μL followed by 34 injections of 8 μL). Data were analyzed using Origin(Pro), Version 2021 (OriginLab Corporation, Northampton, Massachusetts, USA), and MicroCal PEAQ-ITC analysis software (Malvern).

## [Mn+2] [Mn^2+]
[1]
  ^D2Okcat: 3.9 ± 0.1
  ^D2Okcat/KACT: 1.9 ± 0.2
[2]; pH 8.0
  KACT: 0.10 ± 0.01 mM
  kcat: 0.27 s^–1 and 0.274 ± 0.004 s^–1
  kcat/KACT: 2.7 ± 0.2 s^–1mM^–1
[2]; pH 8.0, as given in text
  KACT: 0.1 mM
[3]; ITC titration curves
  greater affinity for Mn^2+ than Mg^2+: approximately 150 times
[3]; ITC, first line per metal: N 1, [PepA] 35.80 ± 1.5 (Mn) or 32.60 (Mg) µM, [Metal] 400.0 or 1000 µM
  Kd: 0.0122 ± 0.0015 µM
[3]; ITC, one binding site per monomer, 25 °C, pH 7.4
  Kd: 0.0136 ± 0.0005 µM
[3]; ITC, one binding site per monomer, 25 °C, pH 7.4, listed as Mn2+
  Kd: 0.012 µM
[3]; ITC, second line per metal: N 1, [PepA] 47.00 or 48.00 µM, [Metal] 526.5 ± 22.5 (Mn) or 1470 (Mg) µM
  Kd: 0.0163 ± 1e-05 µM
[3]; ITC, third line per metal: N fitted
  N: 0.76 ± 0.03
[3]; ITC, third line per metal: N fitted, [PepA] 47.00 or 48.00 µM, [Metal] 400.0 or 1000 µM
  Kd: 0.0122 ± 0.0001 µM
